# Measurements as given in patent publication US8637470B2, “Small humanin-like peptides” (The Regents of the University of California, priority 2008, dated 2014).
# “Also recorded” adds a separate entry of the source. Where no end group is shown, it is not given here.
# What was measured:
# [1] = tested on: Mouse primary cortical neurons; test: Protection of primary cortical neurons from Aβ-induced cell death (Calcein-AM); format: cell-based; conditions: 72 h
# Description: SHLPs protect neurons from Aβ-induced apoptosis. When it was first discovered, HN was described as a potent neural survival factor with clinical implications as a therapeutic agent against neurodegenerative diseases such as Alzheimer's Disease. Since many of the SHLPs appear to be functionally related to HN, SHLPs were tested as potential neuroprotective factors. Mouse primary cortical neurons were incubated with 25 μM Aβ1-43 in the presence or absence of 100 nM SHLP2 or 3, HNG (positive control) or 1 nM colivelin (positive control). After 72 h, neuronal viability was assessed by Calcein-AM staining followed by fluorescence microscopy (FIG. 13).
# biotinylated-HN = biotinylated-HN (Homo sapiens, UniProt Q8IVG9); test: Dot-blot binding to biotinylated-HN; conditions: 2, 5 or 10 nmol peptide dotted on nitrocellulose
# Description: To test a dimerization hypothesis, we performed a dot-blot using biotinylated-HN. Two, 5 or 10 nmol IGF-I (negative control), HN (positive control) or SHLP peptide were dotted on to nitrocellulose membrane, and their ability to bind to biotinylated-HN was assessed immunologically. […] Specific interactions that occur may be determined using, e.g., dot blots with biotinylated SHLPs, and/or antibodies against specific SHLPs.
# S. cerevisiae = test: Yeast heat shock survival; format: cell-based; conditions: 10 μM peptide, 90° heat shock
# Description: SHLPs enhance stress resistance in yeast. The ability of SHLPs to enhance stress resistance in yeast was tested. The ability of yeast to survive heat shock after being treated with different peptides is a commonly used method to test the ability of peptides to enhance yeast survival.
# [2] = tested on: Mouse NIT-1 insulinoma β-cells; test: Apoptosis ELISA (fragmentation of histone-associated DNA) in NIT-1 cells; format: cell-based; conditions: NIT-1, serum starved 24 h, then 24 h with 100 nM peptide
# Description: (§1) SHLPs are anti-apoptotic in 22RV1 prostate cancer cells and NIT-1 β-cells. […] Mouse NIT-1 insulinoma β-cells and 22RV1 human prostate cancer cells were serum starved for 24 h, followed by 24 h incubation with 100 nM scrambled control peptide, HN or SHLPs. Apoptosis was assessed and quantified by ELISA for fragmentation of histone-associated DNA.
# (§2) ERK activation is necessary for SHLP-induced inhibition of apoptosis in NIT-1 and 22RV1 cells. To determine the significance of ERK activation for apoptosis inhibition by SHLPs 2 and 3, PD98059 (PD), a specific chemical inhibitor of ERK1/2, was utilized. 22RV1 and NIT-1 cells were serum starved for 24 h in the presence or absence of 25 μM PD or 1 μM wortmannin (PI3-kinase inhibitor; negative control), followed by 24 h incubation with […] scrambled control peptide, SHLP2 or SHLP3. Apoptosis was then assessed by ELISA for fragmentation of histone-associated DNA.
# Role of IGFBP-3 in effects of SHLPs on cell survival. Since IGFBP-3 is an important regulator of HN action, IGFBP-3 was tested for a possible role in regulating the anti- or pro-apoptotic actions of SHLPs. NIT-1 cells were incubated with 1 μg/ml IGFBP-3±0, 10, 100 or 1000 nM SHLP2 or 3 for 24 h. Apoptosis induction was assessed by ELISA for fragmentation of histone-associated DNA.
# Co-incubation of SHLPs. To evaluate therapeutic uses involving co-treatment with SHLPs, the effect of HN±SHLPs on apoptosis was tested in both 22RV1 and NIT-1 cells. Cells were incubated in SF media for 24 h followed by 24 h with 100 nM HN, SHLP or peptide combination. Apoptosis was assessed by ELISA for fragmentation of histone-associated DNA. Cells were treated with all possible double peptide combinations. Although many peptide combinations had no additive or combined effects compared with the actions of the peptides individually, co-treatment with certain combinations led to unexpected functional changes (FIG. 11). […] Thus, specific SHLPs may either act on complementary pathways, or interact with each other, leading to change of function of one or both peptides. When the same experiments were repeated in NIT-1 cells, similar, but different, change of function effects were observed (FIG. 11B).
# ERK = ERK activation in 22RV1 cells (immunoblotting, ELISA); format: cell-based, human; conditions: 22RV1, 100 nM
# Description: Characterization of the intracellular signaling pathways activated by SHLPs. To determine a mechanism for the growth and apoptosis effects of SHLPs, SHLPs were tested for the ability to modulate activation of intracellular signaling pathways. 22RV1 cells in SF media were treated with 100 nM SHLP 1-5 and whole cell extracts were harvested after 15 min, 30 min, 2 h, 4 h, 8 h and 24 h. Proteins were separated by SDS-PAGE and analyzed by immunoblotting.
# To test the hypothesis that SHLPs may act in concert to regulate intracellular signaling, 22RV1 cells were co-treated with SHLPs 2 and 3, and ERK activation was assessed.
# Since HN causes activation of STAT3, SHLPs 2 and 3 were also tested for effects on STAT3. […] To more accurately quantify the ERK phosphorylation caused by SHLPs 2 and 3, we repeated the experiment as described above but used a commercially available ERK ELISA to assess ERK phosphorylation. Optimal ERK activation by SHLP2 was 9-fold after 24 h, whilst optimal activation by SHLP3 was 12-fold after 2 h (FIG. 5).
# [3] = tested on: 22RV1 human prostate cancer cells; test: Cell proliferation (cell number by MTT/MTS cleavage) in 22RV1 cells; format: cell-based; conditions: 22RV1, 100 nM peptide, 72 h
# Description: (§3) SHLPs exert distinct effects on cell proliferation. Whether SHLPs have the capacity to influence cell proliferation, in addition to their intrinsic effects on apoptosis induction, was also investigated. Mouse NIT-1 insulinoma β-cells and 22RV1 human prostate cancer cells were serum starved for 24 h, followed by 72 h incubation with 100 nM scrambled control peptide, HN or SHLPs. Cell number, as a measure of cell proliferation, was assessed by cleavage of MTT substrate.
# Pro-apoptotic effect on human prostate cancer cells in vitro. To assess the ability of SHLP6 to induce apoptosis in human prostate cancer cells, PC-3, 22RV1 or DU145 cells were incubated in serum free (SF) media for 24 h followed by 24 h incubation with 1 μM scrambled (control) peptide or SHLP6. Apoptosis was assessed by ELISA for fragmentation of histone-associated DNA. In each cell line tested, SHLP6 induced apoptosis by at least 2-fold (FIG. 2), confirming highly significant physiological effects of this novel peptide. To determine whether the effects of SHLP6 were specific to induction of apoptosis, or if it also elicited growth-inhibitory effects, PC-3, DU-145, 22RV1, LAPC4 and LNCaP cells were incubated in SF media for 24 h followed by 72 h incubation with 1 μM SHLP6. Cell number, as a measure of cell proliferation, was assessed by cleavage of MTS substrate.
# [4] = tested on: Mouse NIT-1 insulinoma β-cells; test: Cell proliferation (cell number by MTT/MTS cleavage) in NIT-1 cells; format: cell-based; conditions: NIT-1, 100 nM peptide, 72 h
# Description: as §3
# [5] = tested on: 22RV1 human prostate cancer cells; test: Apoptosis ELISA (fragmentation of histone-associated DNA) in 22RV1 cells; format: cell-based; conditions: 22RV1, serum starved 24 h, then 24 h with 100 nM peptide
# Description: as §1, §2
# STAT3 Activation is also necessary for SHLP-induced cell survival in 22RV1 cells. Since SHLPs 2 and 3 both stimulate STAT3 phosphorylation in addition to ERK activation, the hypothesis that STAT3 activation occurs downstream of ERK1/2 was tested using a specific chemical inhibitor against STAT3, stattic. 22RV1 cells were incubated for 24 h in SF media in the presence or absence of 20 μM stattic followed by 24 h incubation with 100 nM scrambled control peptide, SHLP2 or SHLP3. Apoptosis was assessed by ELISA for fragmentation of histone-associated DNA. […]
# [6] = tested on: 22RV1 prostate cancer xenografts; conditions: mouse, in vivo, ip, 4 mg/kg/day
# Description: Inhibition of 22RV1 xenograft tumor growth and angiogenesis in vivo. In light of the pro-apoptotic actions of SHLP6 in vitro and the association of many cancers with mitochondrial dysfunction, the effect of SHLP6 on tumor growth was investigated in vivo. SCID mice harboring 22RV1 prostate cancer xenografts were treated with 4 mg/kg/day SHLP6 or scrambled control peptide by daily i.p. injection for 7 days.
# To assess the mechanism underlying the reduction in tumor growth, tumor apoptosis (TUNEL), angiogenesis (VEGF) and tumor cell proliferation (PCNA; not shown) were assessed by IHC (FIG. 19). […] SHLP6 therefore has great potential as an anti-cancer agent.
substance,measurement,setting,value
"HNG: HNG (S14G), hyper-potent HN analog (MAPRGFSCLLLLTGEIDLPVKRRA; Humanin; UniProt Q8IVG9 1-24, looked up, variant S14G) [reference compound]",Neuronal viability against Aβ-induced cell death,"[1]; 25 μM Aβ1-43, 100 nM peptide",inhibited
"MAPRGFSCLLLLTSEIDLPVKRRA [HN, reference compound]",Binding to biotinylated-HN (dot-blot),biotinylated-HN,dimerize/multimerize with itself
same,Yeast survival of heat shock,S. cerevisiae,allowed the yeast to withstand 90° heat shock
same,Apoptosis (fragmentation of histone-associated DNA),[2],anti-apoptotic effects
"MCHWAGGASNTGDARGDVFGKQAG [SHLP1, small humanin-like peptide, mtDNA 2490-2561]",Binding to biotinylated-HN (dot-blot),biotinylated-HN,no interaction
same,Duration of sustained ERK phosphorylation,ERK,approximately 8 h
same,Increase in ERK phosphorylation (immunoblotting),ERK; within 30 min,5 fold
same,Cell number as a measure of cell proliferation,[3],slightly stimulated the proliferation
same,Cell number as a measure of cell proliferation,[4],slightly stimulated the proliferation
same,Apoptosis (fragmentation of histone-associated DNA),[5],minimal effect
MLDQDIPMVQPLLKVRLFND [SHLP6],Signs of toxicity,[6],no detectable signs of toxicity
"MLEVMFLVNRRGKICRVPFTFFNLSL [SHLP4, small humanin-like peptide, mtDNA 2446-2524]",Binding to biotinylated-HN (dot-blot),biotinylated-HN,very strong interactions; also recorded: binds
same,Cell number as a measure of cell proliferation,[3],slightly stimulated the proliferation
same,Apoptosis (fragmentation of histone-associated DNA),[2],anti-apoptotic effects
same,Cell number as a measure of cell proliferation,[4],slightly stimulated the proliferation
same,Apoptosis (fragmentation of histone-associated DNA),[5],minimal effect
"MYCSEVGFCSEVAPTEIFNAGLVV [SHLP5, small humanin-like peptide, mtDNA 2785-2856]",ERK activation profile (immunoblotting),ERK; 15 min to 24 h,no observable effect
same,Cell number as a measure of cell proliferation,[3],slightly stimulated the proliferation
same,Cell number as a measure of cell proliferation,[4],slightly stimulated the proliferation
same,Apoptosis (fragmentation of histone-associated DNA),[5],minimal effect
colivelin [reference compound],Neuronal viability against Aβ-induced cell death,"[1]; 25 μM Aβ1-43, 1 nM colivelin",inhibited
